Results from article PMC11811690 (Angewandte Chemie (International Ed. in English), 2024).
≈ marks a conversion by molar mass, not a printed value. Where “and” joins values, the source holds several entries; their conditions need not be identical. Equal entries are not always repeated. Where two headings read alike, the source gives them in different places.

How the values were obtained:
[1] = tested on: M. tuberculosis H37Rv poly-g-GFP; assay: microbe, parasite or virus in culture; format: cell-based; conditions: for IC90: Mycobacterium tuberculosis, H37RV, 240 h, read-out: IC90 Mtb H37Rv-poly-g-GFP, fluorescence read-out
[2] = tested on: C. crescentus pfhuA_ΔacrAB-nodT; format: cell-based; conditions: disk diffusion, 20 µg per disk, 24 h, 30 °C; permeable and efflux-deficient strain
[3] = tested on: M. tuberculosis H37Rv poly-g-GFP; assay: microbe, parasite or virus in culture; format: cell-based; conditions: Mycobacterium tuberculosis, 336 h, read-out: MIC Mtb H37Rv-poly-g-GFP, turbidity read-out
C. crescentus pfhuA = assay: Inhibition zone (Kirby-Bauer disk diffusion), C. crescentus pfhuA; conditions: 20 µg per disk, 24 h, 30 °C, permeable strain
mutant RNAP^R89A = tested on: mutant RNAP^R89A; design: method as in PMID 29606590; conditions: transcription assay, mutant versus wild-type RNAP; cited from earlier work
C. difficile 630 = assay: microbe, parasite or virus in culture; format: cell-based, Clostridioides difficile; conditions: C. difficile 630, anaerobic, overnight, growth suppressed to OD600 < 0.15; for MIC: Clostridioides difficile, read-out: MIC C. difficile
M. tuberculosis RNAP = biological target: T1, M. tuberculosis RNAP (Mycobacterium tuberculosis, UniProt P9WGY7+P9WGY9); assay: biochemical; conditions: fluorescent run-off transcription assay, triplicate, mean ± s.d.; read-out: IC50 Mtb RNAP, fluorescence read-out
T1 construct: made in house; host or cells: E. coli BL21(DE3) is stated for σA only

[4] = concentration for 90 % inhibition of fluorescence as proxy for growth inhibition, 10 days, 37 °C
[5] = 14 days, 37 °C, turbidity by eye

| SMILES | IC90 [1] | Inhibition zone C. crescentus pfuhAh_∆acrABnodT [2] | MIC [3] | Inhibition zone C. crescentus pfuhAh (C. crescentus pfhuA) | increase of IC50 against the mutant RNAP^R89A (mutant RNAP^R89A) | MIC (C. difficile 630) | IC50 (M. tuberculosis RNAP) | MIC C. difficile (C. difficile 630) | activity against M. tuberculosis (in words) [1] | IC90 [1, 4] | MIC [3, 5] |
| --- | --- | --- | --- | --- | --- | --- | --- | --- | --- | --- | --- |
| CCc1c(Cl)c(O)c(Cl)c(O)c1C(=O)O[C@H]1[C@H](O)[C@H](OC)[C@H](OC/C2=C\C=C\C[C@H](O)/C(C)=C/[C@H](CC)[C@@H](O[C@@H]3OC(C)(C)[C@@H](OC(=O)C(C)C)[C@H](O)[C@@H]3O)/C(C)=C/C(C)=C/C[C@@H]([C@@H](C)O)OC2=O)O[C@@H]1C [Fdx, fidaxomicin, reference compound] | 0.5 µg/mL (≈ 0.473 µM) | 311 ± 4 mm2 and 311±4.0 mm2 | 0.5 µg/mL (≈ 0.473 µM) | 126 ± 20 mm2 | > 400 fold | < 0.0078 µg/mL |  |  |  |  |  |
| CC[C@H]1/C=C(\C)[C@@H](O)C/C=C/C=C(\CNc2nccs2)C(=O)O[C@H]([C@@H](C)O)C/C=C(C)/C=C(\C)[C@@H]1O[C@@H]1OC(C)(C)[C@@H](OC(=O)C(C)C)[C@H](O)[C@@H]1O [compound 8] | 16 µg/mL (≈ 21.4 µM) | 263 ± 32 mm2 |  | 81 ± 12 mm2 |  | 4 to 8 µg/mL (≈ 5.36 to 10.7 µM) |  |  |  |  |  |
| CC[C@H]1/C=C(\C)[C@@H](O)C/C=C/C=C(\CNc2nc(COc3ccccc3)cs2)C(=O)O[C@H]([C@@H](C)O)C/C=C(C)/C=C(\C)[C@@H]1O[C@@H]1OC(C)(C)[C@@H](OC(=O)C(C)C)[C@H](O)[C@@H]1O [compound 10] | 8 µg/mL (≈ 9.38 µM) |  | 4 to 8 µg/mL (≈ 4.69 to 9.38 µM) |  |  | 1 µg/mL (≈ 1.17 µM) | 170 ± 60 nM | 1 µg/mL (≈ 1.17 µM) |  |  |  |
| CC[C@H]1/C=C(\C)[C@@H](O)C/C=C/C=C(\CNc2nc(-c3ccccc3)cs2)C(=O)O[C@H]([C@@H](C)O)C/C=C(C)/C=C(\C)[C@@H]1O[C@@H]1OC(C)(C)[C@@H](OC(=O)C(C)C)[C@H](O)[C@@H]1O [compound 13] | 8 µg/mL (≈ 9.72 µM) |  | 8 to 16 µg/mL (≈ 9.72 to 19.4 µM) |  |  | 4 µg/mL (≈ 4.86 µM) | 130 ± 50 nM |  |  |  |  |
| CC[C@H]1/C=C(\C)[C@@H](O)C/C=C/C=C(\CNCc2nnc(-c3ccccc3)o2)C(=O)O[C@H]([C@@H](C)O)C/C=C(C)/C=C(\C)[C@@H]1O[C@@H]1OC(C)(C)[C@@H](OC(=O)C(C)C)[C@H](O)[C@@H]1O [compound 16] | 4 µg/mL (≈ 4.87 µM) | 322 ± 26 mm2 | 4 µg/mL (≈ 4.87 µM) | 127 ± 13 mm2 |  | 4 to 8 µg/mL (≈ 4.87 to 9.73 µM) | 420 ± 230 nM |  |  |  |  |
| CC[C@H]1/C=C(\C)[C@@H](O)C/C=C/C=C(\CNCc2nnc(-c3ccc(OC)c(OC)c3Cl)o2)C(=O)O[C@H]([C@@H](C)O)C/C=C(C)/C=C(\C)[C@@H]1O[C@@H]1OC(C)(C)[C@@H](OC(=O)C(C)C)[C@H](O)[C@@H]1O [compound 18] | 8 µg/mL (≈ 8.73 µM) | 200 ± 19 mm2 | 4 µg/mL (≈ 4.36 µM) | 54 ± 8 mm2 |  | 8 µg/mL (≈ 8.73 µM) |  |  |  |  |  |
| CC[C@H]1/C=C(\C)[C@@H](O)C/C=C/C=C(\CNCc2nnc(-c3ccccc3)s2)C(=O)O[C@H]([C@@H](C)O)C/C=C(C)/C=C(\C)[C@@H]1O[C@@H]1OC(C)(C)[C@@H](OC(=O)C(C)C)[C@H](O)[C@@H]1O [compound 20] | 2 µg/mL (≈ 2.39 µM) | 241 ± 40 mm2 | 2 µg/mL (≈ 2.39 µM) | 108 ± 11 mm2 |  |  |  |  |  |  |  |
| CC[C@H]1/C=C(\C)[C@@H](O)C/C=C/C=C(\CNCc2nnc(-c3cc(Cl)cc(Cl)c3)o2)C(=O)O[C@H]([C@@H](C)O)C/C=C(C)/C=C(\C)[C@@H]1O[C@@H]1OC(C)(C)[C@@H](OC(=O)C(C)C)[C@H](O)[C@@H]1O [compound 21] | 8 µg/mL (≈ 8.98 µM) | 73 ± 11 mm2 | 2 µg/mL (≈ 2.24 µM) |  |  | 4 µg/mL (≈ 4.49 µM) |  |  |  |  |  |
| CC[C@H]1/C=C(\C)[C@@H](O)C/C=C/C=C(\CNc2ccc(C#N)cc2)C(=O)O[C@H]([C@@H](C)O)C/C=C(C)/C=C(\C)[C@@H]1O[C@@H]1OC(C)(C)[C@@H](OC(=O)C(C)C)[C@H](O)[C@@H]1O [compound 24] |  |  |  |  |  | 4 µg/mL (≈ 5.23 µM) |  |  | showed activity | 16 µg/mL (≈ 20.9 µM) | 16 µg/mL (≈ 20.9 µM) |
| CC[C@H]1/C=C(\C)[C@@H](O)C/C=C/C=C(\CNc2ccc(C#N)cn2)C(=O)O[C@H]([C@@H](C)O)C/C=C(C)/C=C(\C)[C@@H]1O[C@@H]1OC(C)(C)[C@@H](OC(=O)C(C)C)[C@H](O)[C@@H]1O [compound 25] |  |  |  |  |  |  |  | 1 µg/mL (≈ 1.31 µM) |  | 16 µg/mL (≈ 20.9 µM) | 8 µg/mL (≈ 10.4 µM) |
| CC[C@H]1/C=C(\C)[C@@H](O)C/C=C/C=C(\CNc2cccc(CN)c2)C(=O)O[C@H]([C@@H](C)O)C/C=C(C)/C=C(\C)[C@@H]1O[C@@H]1OC(C)(C)[C@@H](OC(=O)C(C)C)[C@H](O)[C@@H]1O [compound 27] |  | 119 ± 15 mm2 |  |  |  | > 32 µg/mL | > 100000 nM |  |  | 32 µg/mL (≈ 41.6 µM) |  |
| CC[C@H]1/C=C(\C)[C@@H](O)C/C=C/C=C(\CNc2cccc(CNC(=O)c3ccc(OC)c(OC)c3Cl)c2)C(=O)O[C@H]([C@@H](C)O)C/C=C(C)/C=C(\C)[C@@H]1O[C@@H]1OC(C)(C)[C@@H](OC(=O)C(C)C)[C@H](O)[C@@H]1O [compound 30] |  |  |  |  |  | > 32 µg/mL | 620 ± 290 nM |  |  | 16 µg/mL (≈ 16.5 µM) |  |
